In series [1] the target is T1, Androgen Receptor (Homo sapiens, UniProt P10275).
T1 construct: expressed in transfected cells; host or cells: PathHunter NHRPro cell lines
T1 sequence (P10275 1-920): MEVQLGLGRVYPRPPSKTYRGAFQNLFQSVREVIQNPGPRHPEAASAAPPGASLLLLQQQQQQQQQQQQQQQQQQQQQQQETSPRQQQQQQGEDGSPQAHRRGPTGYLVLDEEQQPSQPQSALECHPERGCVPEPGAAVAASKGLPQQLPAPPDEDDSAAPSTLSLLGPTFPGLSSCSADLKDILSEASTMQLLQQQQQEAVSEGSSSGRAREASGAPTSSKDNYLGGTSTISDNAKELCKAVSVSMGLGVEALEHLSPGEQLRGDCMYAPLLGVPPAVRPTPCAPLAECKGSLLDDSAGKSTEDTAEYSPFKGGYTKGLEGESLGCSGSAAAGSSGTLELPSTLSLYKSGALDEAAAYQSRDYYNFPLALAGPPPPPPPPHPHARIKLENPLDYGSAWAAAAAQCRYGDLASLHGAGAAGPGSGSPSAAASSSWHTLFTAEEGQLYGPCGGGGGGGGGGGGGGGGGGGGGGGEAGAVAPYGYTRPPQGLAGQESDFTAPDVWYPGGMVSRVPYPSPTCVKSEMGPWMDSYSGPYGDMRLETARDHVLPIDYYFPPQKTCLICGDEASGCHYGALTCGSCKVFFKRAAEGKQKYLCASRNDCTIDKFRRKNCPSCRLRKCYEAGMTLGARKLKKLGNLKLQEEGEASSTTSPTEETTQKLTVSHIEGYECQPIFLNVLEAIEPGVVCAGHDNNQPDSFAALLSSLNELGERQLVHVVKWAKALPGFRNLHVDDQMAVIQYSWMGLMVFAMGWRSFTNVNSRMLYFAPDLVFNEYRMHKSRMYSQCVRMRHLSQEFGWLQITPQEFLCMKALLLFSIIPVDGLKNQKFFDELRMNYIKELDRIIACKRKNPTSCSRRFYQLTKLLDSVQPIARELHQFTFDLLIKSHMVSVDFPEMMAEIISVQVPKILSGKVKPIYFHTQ
As to the kind of experiment: Androgen Receptor Nuclear Translocation Assay. The class given is cell-based. The note with it: for EC50: agonist mode, PathHunter NHRPro cells, 5 h, read-out: AR Nuclear Translocation Assay Agonist Mode EC50; for IC50: antagonist mode, agonist challenge at EC80, read-out: AR Nuclear Translocation Assay Antagonist Mode IC50. The method, then:
Once it was established that the cells were healthy and growing normally, cells were transferred from flasks using trypsin-free cell dissociation buffer and seeded into white walled clear bottom 384-well microplates for compound profiling. For profiling, cells were seeded at a density of 10,000 cells per well in a total volume of 50 μL and were allowed to adhere and recover overnight prior to compound addition. Media contained charcoal-dextran filtered serum to reduce the level of hormones present.
Agonist Format: Intermediate dilution of compound stocks were generated such that 5.5 μL of 10X compound could be added to each well with a final DMSO concentration of 1% of total volume. For profiling compound in agonist mode, the cells were incubated in the presence of compound at 37° C. for 5 h.
Antagonist Format: Agonist dose curves were performed to determine the EC80 value for the following antagonist testing with compounds. 5.5 μL of 10× agonist was added to each well with an equal concentration of vehicle present. EC80 agonist concentration was determined directly from agonist dose curve. For antagonist determination, cells were pre-incubated with antagonist followed by agonist challenge at the EC80 concentration: 5.5 μL of 10× compound added to cells and incubated at 37° C. for 1 h; 5.5 μL of 11× EC80 agonist added to cells and incubated at 37° C. for 5 h.
Signal Detection: After appropriate compound incubation, assay signal was generated through a single addition of 30 μL (50% v/v) of PathHunter Detection reagent cocktail for agonist and antagonist assays respectively followed by 1 h incubation at room temperature. Microplates were read following signal generation with a PerkinElmer ViewLux™ instrument for chemiluminescent signal detection.
Data Analysis: Dose curves in the presence and absence of compound were plotted using GraphPad Prism.

The nature of series [2]: [14C]RD162′ radio-HPLC metabolite profile in Pooled Rat Plasma. The class given is in vivo, Sprague Dawley rats. As to conditions: [14C]RD162′ 100 mg/kg/day oral, day 7, 4 h. The method, then: The rats were dosed once a day for seven consecutive days; four hours after dosing on the seventh day, plasma was collected from all three rats. The plasma samples were stored at approximately −70° C. or colder.
Positive ion electrospray LC/MS and LC/MS/MS were used to analyze the metabolites.
To prepare the Pooled Rat Plasma for HPLC analysis, approximately 1 g of the plasma sample was combined with acetonitrile (ACN, sample:ACN, 1:3, v:v), vortex mixed, sonicated in cold water, centrifuged, and the supernatants were removed. The extraction was repeated twice and the respective supernatants were combined. […] The combined supernatants were evaporated to dryness and reconstituted in 1 mL of 0.1% formic acid in reverse osmosis (RO) water:ACN: methanol (MeOH, 50:45:5, v:v:v). […] The reconstituted sample was analyzed by HPLC to determine the metabolite profile with fractions collected at 10-second intervals and analyzed by solid scintillation counting.
The prepared samples were analyzed using the following LC/MS/MS conditions: HPLC: Hewlett Packard 1100 series; Mobile Phase: 0.1% formic acid in reverse osmosis water (A) and acetonitrile (B); Column: Agilent Eclipse XDB-C18, 4.6×150 mm, 5 μm; Guard column: Phenomenex Security Guard Cartridge C18, 3×4 mm; Column temperature: 20° C.; Gradient: 20-80% B in 40 min; Flow Rate: 1.5 mL/min.

For the compound `CC1(C)C(=O)N(c2ccc(C#N)c(C(F)(F)F)c2)C(=O)N1c1ccc(C(N)=O)c(F)c1` [(MIII), 4-(3-(4-cyano-3-(trifluoromethyl)phenyl)-5,5-dimethyl-2,4-dioxoimidazolidin-1-yl)-2-fluorobenzamide], in series [1], the EC50 was over 60 µM and the IC50 worked out at 16.2 µM. For the same compound, in series [2], the “% Injected Radioactivity (%)” value is 7.96%, the “% Recovered Radioactivity (%)” value stood at 12.50%, the “Peak Area (mV)” value is listed as 426 mV and the “Peak Height (mV)” value was found to be 77 mV.

As to `CNC(=O)c1ccc(N2C(=O)N(c3ccc(C#N)c(C(F)(F)F)c3)C(=O)C2(C)C)cc1F` [(MIV), 4-(3-(4-cyano-3-(trifluoromethyl)phenyl)-5,5-dimethyl-2,4-dioxoimidazolidin-1-yl)-2-fluoro-N-methylbenzamide], in series [1], the EC50 was over 60 µM and the IC50 was 11.6 µM. Further, in series [2], the “% Injected Radioactivity (%)” value was determined as 8.45%, the “% Recovered Radioactivity (%)” value worked out at 13.27%, the “Peak Area (mV)” value is 452 mV and the “Peak Height (mV)” value is given as 63 mV.

As to `CC1(C)C(=O)N(c2ccc(C#N)c(C(F)(F)F)c2)C(=S)N1c1ccc(C(N)=O)c(F)c1` [(MII), 4-(3-(4-Cyano-3-(trifluoromethyl)phenyl)-5,5-dimethyl-4-oxo-2-thioxoimidazolidin-1-yl)-2-fluorobenzamide], in series [1], the EC50 was over 60 µM and the IC50 is 3.2 µM. For the same compound, in series [2], the “% Injected Radioactivity (%)” value turned out to be 5.38%, the “% Recovered Radioactivity (%)” value amounted to 8.45%, the “Peak Area (mV)” value is 288 mV and the “Peak Height (mV)” value is reported as 43 mV.

For the compound `CC1(C)C(=O)N(c2ccc(C#N)c(C(F)(F)F)c2)C(=S)N1c1ccc(C(=O)O)c(F)c1` [(MI), 4-(3-(4-cyano-3-(trifluoromethyl)phenyl)-5,5-dimethyl-4-oxo-2-thioxoimidazolidin-1-yl)-2-fluorobenzoic acid], in series [1], the EC50 is over 60 µM and the IC50 was over 60 µM. In addition, in series [2], the “% Injected Radioactivity (%)” value amounted to 11.02%, the “% Recovered Radioactivity (%)” value is given as 17.31%, the “Peak Area (mV)” value is on record as 589 mV and the “Peak Height (mV)” value was determined as 86 mV.
